Results taken from patent publication US12403129B2, “Isotope-enriched 3-amino-1-propanesulfonic acid derivatives for the treatment of cerebrovascular disease” (RISEN (SUZHOU) PHARMA TECH CO., LTD., priority 2021, dated 2025).
“Also recorded” adds a separate entry of the source.

Tests used:
[1] = tested on: rat model of dementia caused by multiple cerebral infarction; assay: Cognitive tests in rat model of dementia caused by multiple cerebral infarction; format: in vivo, SD rats; details: for Discrimination coefficient for new objects, p compared with model group / Priority index for new objects, p compared with model group: n = 12-14
Procedure: 135 SPF grade SD rats (75 females, 60 males, weighing 200-220 g) were used. Anesthesia was performed by intraperitoneal injection of 3.5% chloral hydrate (350 mg/kg). After dorsal fixation, neck hair removal and iodophor disinfection, animals were cut along the middle of the neck to separate the right common carotid artery, external carotid artery and internal carotid artery. The common carotid artery was temporarily clamped by the artery clamp, the left external carotid artery was retrogradely punctured to the beginning of the left internal carotid artery with a pediatric scalp needle, and then 0.4 ml of embolic normal saline suspension was slowly injected with a syringe (the preparation of embolic normal saline suspension was as follows: blood was collected from the abdominal aorta of the same rat, dried naturally in a 37° C. incubator, and prepared for 80-200 minutes to form a blood clot; during application, 0.3 ml normal saline was added to every 10 mg blood clot), and the common carotid artery clamp was opened at the same time, then the external carotid artery was ligated and the skin was sutured. In the sham operation group, 0.4 ml normal saline was used instead of embolic suspension. The experimental animals were randomly divided into 6 groups according to weight balance, as follows: sham operation group, model group, positive control group (donepezil) and test compound group (different doses). There were 12-14 rats in each group. The animals in each group began to give drugs by gavage after modeling until the end of the experiment. The animals underwent Y maze experiment on the 16th day of administration, new object discrimination experiment on the 17th-20th day, Morris water maze experiment on the 22nd-27th day, and dark avoidance experiment on the 28th-29th day. On the 30th day, animals were sacrificed and tissues harvested for analysis.
The main pathological indexes included investigation of the improvement of learning and memory impairment in the dementia model animal by test compound using behavioral experimental methods such as Y maze, new object discrimination, Morris water maze and passive avoidance test (dark avoidance); investigation of the protective effect of test compound on mitochondria by detecting the content of ATP in hippocampus and cortex of rats; and investigation of levels of oxidative stress in the rat brain by measuring activity of superoxide dismutase (SOD, which is an oxygen free-radical scavenger), glutathione peroxidase (GSH-Px, which scavenges lipid peroxides induced by reactive oxygen species and —OH), nitric oxide synthase (NOS), malondialdehyde (MDA), and nitric oxide (NO). The ultrastructure of nerve cells (including nucleus, mitochondria and synapse) was investigated using immunofluorescence and transmission electron microscope. Expression of synaptic associated proteins SYP and PSD95 was detected by Western blotting. Experimental results for compound 4 on the concentration of nitric oxide (NO), the activity of nitric oxide synthase (NOS) and the ultrastructure of nerve cells in the rat model of dementia caused by multiple cerebral infarction are shown in FIGS. 7-11. Experimental results were statistically analyzed using IBM SPSS 21.0 software. The differences between groups were compared by one-way ANOVA or two-way ANOVA (water maze directional navigation) and LSD test.

ATP = ATP content of hippocampus and cortex, multiple cerebral infarction dementia rats; format: in vivo, SD rats; details: compared with the model group, p<0.05
Procedure: (§1) 135 SPF grade SD rats (75 females, 60 males, weighing 200-220 g) were used. Anesthesia was performed by intraperitoneal injection of 3.5% chloral hydrate (350 mg/kg). After dorsal fixation, neck hair removal and iodophor disinfection, animals were cut along the middle of the neck to separate the right common carotid artery, external carotid artery and internal carotid artery. […]
(§2) The main pathological indexes included investigation of the improvement of learning and memory impairment in the dementia model animal by test compound using behavioral experimental methods such as Y maze, new object discrimination, Morris water maze and passive avoidance test (dark avoidance); investigation of the protective effect of test compound on mitochondria by detecting the content of ATP in hippocampus and cortex of rats; and investigation of levels of oxidative stress in the rat brain by measuring activity of superoxide dismutase (SOD, which is an oxygen free-radical scavenger), glutathione peroxidase (GSH-Px, which scavenges lipid peroxides induced by reactive oxygen species and —OH), nitric oxide synthase (NOS), malondialdehyde (MDA), and nitric oxide (NO). […] Expression of synaptic associated proteins SYP and PSD95 was detected by Western blotting. […] Experimental results were statistically analyzed using IBM SPSS 21.0 software. […]

nitric oxide (NO) = assay: NO concentration in cerebral cortex, multiple cerebral infarction dementia rats; format: in vivo, SD rats; details: compared with the model group, p<0.05
Procedure: (§3) Compound 4, 120 mg/kg, bid; D. Compound 4, 240 mg/kg, bid; E. Compound 4, 480 mg/kg, bid; F. Donepezil, 0.9 mg/kg. Compared with sham operation group: ### P<0.001; Compared with the model group: ** P<0.01, *** P<0.001.
(§4) 135 SPF grade SD rats (75 females, 60 males, weighing 200-220 g) were used. Anesthesia was performed by intraperitoneal injection of 3.5% chloral hydrate (350 mg/kg). After dorsal fixation, neck hair removal and iodophor disinfection, animals were cut along the middle of the neck to separate the right common carotid artery, external carotid artery and internal carotid artery. The common carotid artery was temporarily clamped by the artery clamp, the left external carotid artery was retrogradely punctured to the beginning of the left internal carotid artery with a pediatric scalp needle, and then 0.4 ml of embolic normal saline suspension was slowly injected with a syringe (the preparation of embolic normal saline suspension was as follows: blood was collected from the abdominal aorta of the same rat, dried naturally in a 37° C. incubator, and prepared for 80-200 minutes to form a blood clot; during application, 0.3 ml normal saline was added to every 10 mg blood clot), and the common carotid artery clamp was opened at the same time, then the external carotid artery was ligated and the skin was sutured. […]

[2] = tested on: nitric oxide synthase (NOS); assay: NOS activity in cerebral cortex, multiple cerebral infarction dementia rats; format: in vivo, SD rats; details: compared with the model group, p<0.05
Procedure: as §3, §4

MBP = MBP expression, multiple cerebral infarction dementia rats; format: in vivo, SD rats; details: compared with the model group, p<0.05
Procedure: as §1, §2

[3] = tested on: nerve cells (nucleus, mitochondria and synapse); assay: Ultrastructure of nerve cells (transmission electron microscope), multiple cerebral infarction dementia rats; format: in vivo, SD rats; details: compared with the model group, p<0.05
Procedure: Compound 4, 120 mg/kg, bid; D. Compound 4, 240 mg/kg, bid; E. Compound 4, 480 mg/kg, bid; F. Donepezil, 0.9 mg/kg.
as §1
The main pathological indexes included investigation of the improvement of learning and memory impairment in the dementia model animal by test compound using behavioral experimental methods such as Y maze, new object discrimination, Morris water maze and passive avoidance test (dark avoidance); investigation of the protective effect of test compound on mitochondria by detecting the content of ATP in hippocampus and cortex of rats; and investigation of levels of oxidative stress in the rat brain by measuring activity of superoxide dismutase (SOD, which is an oxygen free-radical scavenger), glutathione peroxidase (GSH-Px, which scavenges lipid peroxides induced by reactive oxygen species and —OH), nitric oxide synthase (NOS), malondialdehyde (MDA), and nitric oxide (NO). […] Expression of synaptic associated proteins SYP and PSD95 was detected by Western blotting. […]

SYP = SYP expression by Western blotting, multiple cerebral infarction dementia rats; format: in vivo, SD rats; details: compared with the model group, p<0.05
Procedure: as §1, §2

PSD95 = PSD95 expression by Western blotting, multiple cerebral infarction dementia rats; format: in vivo, SD rats; details: compared with the model group, p<0.05
Procedure: as §1, §2

[4] = cited from earlier work
[5] = Test group vs model group, n = 12-14, dose not given
[6] = first listing in Table VII, Test group vs model group
[7] = second listing in Table VII, Test group vs model group
[8] = 2-h time point, oral, 0.72 mmol/kg

Structure (SMILES): [2H]C([2H])(CCS(=O)(=O)O)NC(=O)[C@@H](N)C(C)C [compound 4, 3-((L-valyl)amino)-3,3-dideuterium-1-propanesulfonic Acid]
- Swimming time in target quadrant, p compared with model group [1, 5]: p < 0.05
- The incubation period for entering the darkroom, p compared with model group [1, 5]: p < 0.05
- Times of threading, p compared with model group [1, 5]: p < 0.05
- Discrimination coefficient for new objects, p compared with model group [1, 6]: p < 0.05
- Priority index for new objects, p compared with model group [1, 6]: p < 0.05
- working memory, image recognition and memory, spatial memory and long-term memory impairment ([1]; rat model of dementia caused by multiple infarction): may improve
- discrimination coefficient to new objects in the new object discrimination experiment ([1]; rats, gavage): can improve
- escape latency of directional navigation ([1]; rats, gavage): can improve
- number of errors entering the dark room in the dark avoidance experiment ([1]; rats, gavage): can improve
- number of times of crossing the platform ([1]; rats, gavage): can improve
- percentage of swimming distance in the target quadrant ([1]; rats, gavage): can improve
- priority index to new objects in the new object discrimination experiment ([1]; rats, gavage): can improve
- spontaneous alternating reaction rate in the Y maze ([1]; rats, gavage): can improve
- swimming time in the target quadrant ([1]; rats, gavage): can improve
- total swimming distance in the water maze test ([1]; rats, gavage): can improve
- Discrimination coefficient for new objects, p compared with model group [1, 7]: p < 0.05
- Priority index for new objects, p compared with model group [1, 7]: p < 0.01
- ATP content of hippocampus and cerebral cortex (ATP): significantly increased
- NO content (nitric oxide (NO)): significantly reduced
- NOS activity [2]: significantly reduced
- MBP expression (MBP): increased
- ultrastructure of nerve cells [3]: improved
- SYP expression (SYP): significantly increased
- PSD95 expression (PSD95): significantly increased
- concentration of metabolite (2-carboxy-1-ethanesulfonic acid) in plasma compared to 3APS (of natural abundance) [4, 8]: much lower
- plasma drug concentration compared to 3APS (of natural abundance) [4, 8]: higher
- plasma drug exposure compared to 3APS (of natural abundance) ([4]; mole-equivalent oral dose (0.72 mmol/kg), mouse plasma): improved plasma drug exposure significantly; also recorded: even greater improvement of drug exposure
- increase of Cmax for the drug concentration ([4]; mole-equivalent oral dose, mouse plasma, versus 3APS of natural abundance): ~2 fold
- drug metabolism / metabolic profile compared to 3APS ([4]; mole-equivalent oral dose, mouse): delayed drug metabolism
- conversion of prodrug to compound 1 in the subject ([4]; oral, mouse plasma): converted easily to compound 1
